Experimental data taken from article PMC12310023 (PLOS Neglected Tropical Diseases, 2025).

Tested on: NLuc-expressing C. parvum
Assay: NLuc C. parvum IFNγ-KO mouse infection model, oocyst shedding
Assay type: in vivo

CC(C)(CO)Cn1nc(-c2ccc3cc(OC4CC4)ccc3c2)c(C(N)=O)c1N [compound 1708]
RLU Raw (8 mg/kg QD x3, group I, Day 6, Cp Mouse Efficacy 1): 754480 RLU
RLU Raw (8 mg/kg QD x3, group I, Day 7, Cp Mouse Efficacy 1): 2842576 RLU
RLU Raw (8 mg/kg QD x3, group I, Day 8, Cp Mouse Efficacy 1): 17367584 RLU
RLU Raw (8 mg/kg QD x3, group I, Day 9, Cp Mouse Efficacy 1): 4938000 RLU
RLU Raw (8 mg/kg QD x3, group I, Day 10, Cp Mouse Efficacy 1): 9525504 RLU
RLU Raw (8 mg/kg QD x3, group I, Day 13, Cp Mouse Efficacy 1): 2717520 RLU
RLU Raw (8 mg/kg QD x3, group I, Day 15, Cp Mouse Efficacy 1): 2626944 RLU
RLU Raw (8 mg/kg QD x3, group I, Day 17, Cp Mouse Efficacy 1): 5999920 RLU
RLU Raw (8 mg/kg QD x3, group I, Day 20, Cp Mouse Efficacy 1): 14563168 RLU
RLU standardized by fecal weight (8 mg/kg QD x3, group I, day 6 p.i., Cp Mouse Efficacy 1): 118816 RLU
RLU standardized by fecal weight (8 mg/kg QD x3, group I, day 7 p.i., Cp Mouse Efficacy 1): 653466 RLU
RLU standardized by fecal weight (8 mg/kg QD x3, group I, day 8 p.i., Cp Mouse Efficacy 1): 4135139 RLU
RLU standardized by fecal weight (8 mg/kg QD x3, group I, day 9 p.i., Cp Mouse Efficacy 1): 1371667 RLU
RLU standardized by fecal weight (8 mg/kg QD x3, group I, day 10 p.i., Cp Mouse Efficacy 1): 1763982 RLU
RLU standardized by fecal weight (8 mg/kg QD x3, group I, day 13 p.i., Cp Mouse Efficacy 1): 414889 RLU
RLU standardized by fecal weight (8 mg/kg QD x3, group I, day 15 p.i., Cp Mouse Efficacy 1): 314604 RLU
RLU standardized by fecal weight (8 mg/kg QD x3, group I, day 17 p.i., Cp Mouse Efficacy 1): 909079 RLU
RLU standardized by fecal weight (8 mg/kg QD x3, group I, day 20 p.i., Cp Mouse Efficacy 1): 1879118 RLU
RLU Raw (15 mg/kg QD x3, group H, Day 6, Cp Mouse Efficacy 1): 464960 RLU
RLU Raw (15 mg/kg QD x3, group H, Day 7, Cp Mouse Efficacy 1): 131248 RLU
RLU Raw (15 mg/kg QD x3, group H, Day 8, Cp Mouse Efficacy 1): 447488 RLU
RLU Raw (15 mg/kg QD x3, group H, Day 9, Cp Mouse Efficacy 1): 45888 RLU
RLU Raw (15 mg/kg QD x3, group H, Day 10, Cp Mouse Efficacy 1): 5216 RLU
RLU Raw (15 mg/kg QD x3, group H, Day 13, Cp Mouse Efficacy 1): 1120 RLU
RLU Raw (15 mg/kg QD x3, group H, Day 15, Cp Mouse Efficacy 1): 6784 RLU
RLU Raw (15 mg/kg QD x3, group H, Day 17, Cp Mouse Efficacy 1): 944 RLU
RLU Raw (15 mg/kg QD x3, group H, Day 20, Cp Mouse Efficacy 1): 848 RLU
RLU standardized by fecal weight (15 mg/kg QD x3, group H, day 6 p.i., Cp Mouse Efficacy 1): 86104 RLU
RLU standardized by fecal weight (15 mg/kg QD x3, group H, day 7 p.i., Cp Mouse Efficacy 1): 18617 RLU
RLU standardized by fecal weight (15 mg/kg QD x3, group H, day 8 p.i., Cp Mouse Efficacy 1): 49446 RLU
RLU standardized by fecal weight (15 mg/kg QD x3, group H, day 9 p.i., Cp Mouse Efficacy 1): 4543 RLU
RLU standardized by fecal weight (15 mg/kg QD x3, group H, day 10 p.i., Cp Mouse Efficacy 1): 1391 RLU
RLU standardized by fecal weight (15 mg/kg QD x3, group H, day 13 p.i., Cp Mouse Efficacy 1): 89 RLU
RLU standardized by fecal weight (15 mg/kg QD x3, group H, day 15 p.i., Cp Mouse Efficacy 1): 665 RLU
RLU standardized by fecal weight (15 mg/kg QD x3, group H, day 17 p.i., Cp Mouse Efficacy 1): 115 RLU
RLU standardized by fecal weight (15 mg/kg QD x3, group H, day 20 p.i., Cp Mouse Efficacy 1): 86 RLU
RLU Raw (15 mg/kg x 1 days, group G, Day 6, Cp Mouse Efficacy 2): 267600 RLU
RLU Raw (15 mg/kg x 1 days, group G, Day 7, Cp Mouse Efficacy 2): 185696 RLU
RLU Raw (15 mg/kg x 1 days, group G, Day 8, Cp Mouse Efficacy 2): 380816 RLU
RLU Raw (15 mg/kg x 1 days, group G, Day 9, Cp Mouse Efficacy 2): 630928 RLU
RLU Raw (15 mg/kg x 1 days, group G, Day 10, Cp Mouse Efficacy 2): 2410000 RLU
RLU Raw (15 mg/kg x 1 days, group G, Day 13, Cp Mouse Efficacy 2): 338704 RLU
RLU Raw (15 mg/kg x 1 days, group G, Day 15, Cp Mouse Efficacy 2): 51520 RLU
RLU Raw (15 mg/kg x 1 days, group G, Day 17, Cp Mouse Efficacy 2): 66336 RLU
RLU Raw (15 mg/kg x 1 days, group G, Day 20, Cp Mouse Efficacy 2): 43392 RLU
RLU standardized by fecal weight (15 mg/kg x 1 days, group G, day 6 p.i., Cp Mouse Efficacy 2): 18713 RLU
RLU standardized by fecal weight (15 mg/kg x 1 days, group G, day 7 p.i., Cp Mouse Efficacy 2): 21344 RLU
RLU standardized by fecal weight (15 mg/kg x 1 days, group G, day 8 p.i., Cp Mouse Efficacy 2): 110381 RLU
RLU standardized by fecal weight (15 mg/kg x 1 days, group G, day 9 p.i., Cp Mouse Efficacy 2): 122510 RLU
RLU standardized by fecal weight (15 mg/kg x 1 days, group G, day 10 p.i., Cp Mouse Efficacy 2): 529670 RLU
RLU standardized by fecal weight (15 mg/kg x 1 days, group G, day 13 p.i., Cp Mouse Efficacy 2): 94084 RLU
RLU standardized by fecal weight (15 mg/kg x 1 days, group G, day 15 p.i., Cp Mouse Efficacy 2): 6869 RLU
RLU standardized by fecal weight (15 mg/kg x 1 days, group G, day 17 p.i., Cp Mouse Efficacy 2): 20102 RLU
RLU standardized by fecal weight (15 mg/kg x 1 days, group G, day 20 p.i., Cp Mouse Efficacy 2): 10091 RLU
RLU Raw (15 mg/kg x 2 days, group H, Day 6, Cp Mouse Efficacy 2): 505536 RLU
RLU Raw (15 mg/kg x 2 days, group H, Day 7, Cp Mouse Efficacy 2): 606112 RLU
RLU Raw (15 mg/kg x 2 days, group H, Day 8, Cp Mouse Efficacy 2): 78272 RLU
RLU Raw (15 mg/kg x 2 days, group H, Day 9, Cp Mouse Efficacy 2): 75472 RLU
RLU Raw (15 mg/kg x 2 days, group H, Day 10, Cp Mouse Efficacy 2): 77152 RLU
RLU Raw (15 mg/kg x 2 days, group H, Day 13, Cp Mouse Efficacy 2): 20208 RLU
RLU Raw (15 mg/kg x 2 days, group H, Day 15, Cp Mouse Efficacy 2): 12176 RLU
RLU Raw (15 mg/kg x 2 days, group H, Day 17, Cp Mouse Efficacy 2): 9280 RLU
RLU Raw (15 mg/kg x 2 days, group H, Day 20, Cp Mouse Efficacy 2): 10848 RLU
RLU standardized by fecal weight (15 mg/kg x 2 days, group H, day 6 p.i., Cp Mouse Efficacy 2): 118950 RLU
RLU standardized by fecal weight (15 mg/kg x 2 days, group H, day 7 p.i., Cp Mouse Efficacy 2): 269383 RLU
RLU standardized by fecal weight (15 mg/kg x 2 days, group H, day 8 p.i., Cp Mouse Efficacy 2): 14630 RLU
RLU standardized by fecal weight (15 mg/kg x 2 days, group H, day 9 p.i., Cp Mouse Efficacy 2): 18635 RLU
RLU standardized by fecal weight (15 mg/kg x 2 days, group H, day 10 p.i., Cp Mouse Efficacy 2): 18370 RLU
RLU standardized by fecal weight (15 mg/kg x 2 days, group H, day 13 p.i., Cp Mouse Efficacy 2): 1962 RLU
RLU standardized by fecal weight (15 mg/kg x 2 days, group H, day 15 p.i., Cp Mouse Efficacy 2): 2387 RLU
RLU standardized by fecal weight (15 mg/kg x 2 days, group H, day 17 p.i., Cp Mouse Efficacy 2): 1160 RLU
RLU standardized by fecal weight (15 mg/kg x 2 days, group H, day 20 p.i., Cp Mouse Efficacy 2): 4094 RLU
RLU Raw (15 mg/kg x 3 days, group I, Day 6, Cp Mouse Efficacy 2): 932240 RLU
RLU Raw (15 mg/kg x 3 days, group I, Day 7, Cp Mouse Efficacy 2): 627218 RLU
RLU Raw (15 mg/kg x 3 days, group I, Day 8, Cp Mouse Efficacy 2): 396768 RLU
RLU Raw (15 mg/kg x 3 days, group I, Day 9, Cp Mouse Efficacy 2): 37984 RLU
RLU Raw (15 mg/kg x 3 days, group I, Day 10, Cp Mouse Efficacy 2): 6160 RLU
RLU Raw (15 mg/kg x 3 days, group I, Day 13, Cp Mouse Efficacy 2): 1280 RLU
RLU Raw (15 mg/kg x 3 days, group I, Day 15, Cp Mouse Efficacy 2): 656 RLU
RLU Raw (15 mg/kg x 3 days, group I, Day 17, Cp Mouse Efficacy 2): 496 RLU
RLU Raw (15 mg/kg x 3 days, group I, Day 20, Cp Mouse Efficacy 2): 864 RLU
